Test results taken from a compilation of properties of binary mixtures (doi:10.1007/s10953-023-01246-7).

Experiment: xn = mol fraction of the nth substance listed
Conditions: 100 kPa

Q: What does the source list for `CCOS(=O)(=O)[O-].CC[n+]1ccn(C)c1` + OCCO?
A: viscosity (293.15 K, x1 = 0.1982): 17.96 mPa·s; viscosity (293.15 K, x1 = 0.4002): 25.17 mPa·s; viscosity (293.15 K, x1 = 0.5005): 32.09 mPa·s; viscosity (293.15 K, x1 = 0.5992): 40.31 mPa·s; viscosity (293.15 K, x1 = 0.6994): 54.7 mPa·s; viscosity (293.15 K, x1 = 0.8001): 70.3 mPa·s; viscosity (293.15 K, x1 = 0.8993): 99.9 mPa·s; viscosity (298.15 K, x1 = 0.1003): 14.75 mPa·s; viscosity (298.15 K, x1 = 0.1982): 15.08 mPa·s; viscosity (298.15 K, x1 = 0.2999): 17.32 mPa·s; viscosity (298.15 K, x1 = 0.4002): 21.18 mPa·s; viscosity (298.15 K, x1 = 0.5005): 26.88 mPa·s; viscosity (298.15 K, x1 = 0.5992): 33.49 mPa·s; viscosity (298.15 K, x1 = 0.6994): 44.9 mPa·s; viscosity (298.15 K, x1 = 0.8001): 56.9 mPa·s; viscosity (298.15 K, x1 = 0.8993): 78.4 mPa·s; viscosity (303.15 K, x1 = 0.1003): 12.28 mPa·s; viscosity (303.15 K, x1 = 0.1982): 12.75 mPa·s; viscosity (303.15 K, x1 = 0.2999): 14.69 mPa·s; viscosity (303.15 K, x1 = 0.4002): 17.95 mPa·s; viscosity (303.15 K, x1 = 0.5005): 22.71 mPa·s; viscosity (303.15 K, x1 = 0.8001): 46.47 mPa·s; viscosity (303.15 K, x1 = 0.8993): 62.8 mPa·s; viscosity (308.15 K, x1 = 0.1003): 10.4 mPa·s; viscosity (308.15 K, x1 = 0.4002): 15.42 mPa·s; viscosity (308.15 K, x1 = 0.5005): 19.35 mPa·s; viscosity (308.15 K, x1 = 0.5992): 23.73 mPa·s; viscosity (308.15 K, x1 = 0.6994): 31.11 mPa·s; viscosity (308.15 K, x1 = 0.8001): 38.47 mPa·s; viscosity (308.15 K, x1 = 0.8993): 51.2 mPa·s; viscosity (313.15 K, x1 = 0.1003): 8.88 mPa·s; viscosity (313.15 K, x1 = 0.2999): 10.94 mPa·s; viscosity (313.15 K, x1 = 0.4002): 13.31 mPa·s; viscosity (313.15 K, x1 = 0.5005): 16.65 mPa·s; viscosity (313.15 K, x1 = 0.5992): 20.23 mPa·s; viscosity (313.15 K, x1 = 0.6994): 26.27 mPa·s; viscosity (313.15 K, x1 = 0.8001): 32.2 mPa·s; viscosity (313.15 K, x1 = 0.8993): 42.22 mPa·s; viscosity (318.15 K, x1 = 0.1003): 7.67 mPa·s; viscosity (318.15 K, x1 = 0.2999): 9.49 mPa·s; viscosity (318.15 K, x1 = 0.5005): 14.46 mPa·s; viscosity (318.15 K, x1 = 0.5992): 17.49 mPa·s; viscosity (318.15 K, x1 = 0.6994): 22.38 mPa·s; viscosity (323.15 K, x1 = 0.1982): 7.16 mPa·s; viscosity (323.15 K, x1 = 0.2999): 8.38 mPa·s; viscosity (323.15 K, x1 = 0.4002): 10.19 mPa·s; viscosity (323.15 K, x1 = 0.5005): 12.56 mPa·s; viscosity (323.15 K, x1 = 0.5992): 15.18 mPa·s; viscosity (323.15 K, x1 = 0.6994): 19.32 mPa·s; viscosity (323.15 K, x1 = 0.8001): 23.28 mPa·s; viscosity (323.15 K, x1 = 0.8993): 29.87 mPa·s; viscosity (328.15 K, x1 = 0.1003): 5.8 mPa·s; viscosity (328.15 K, x1 = 0.1982): 6.26 mPa·s; viscosity (328.15 K, x1 = 0.2999): 7.45 mPa·s; viscosity (328.15 K, x1 = 0.4002): 9.03 mPa·s; viscosity (328.15 K, x1 = 0.5005): 11.07 mPa·s; viscosity (328.15 K, x1 = 0.5992): 13.32 mPa·s; viscosity (328.15 K, x1 = 0.6994): 16.79 mPa·s; viscosity (328.15 K, x1 = 0.8001): 20.18 mPa·s; viscosity (328.15 K, x1 = 0.8993): 25.55 mPa·s; viscosity (333.15 K, x1 = 0.2999): 6.62 mPa·s; viscosity (333.15 K, x1 = 0.4002): 8.07 mPa·s; viscosity (333.15 K, x1 = 0.5992): 11.79 mPa·s; viscosity (333.15 K, x1 = 0.6994): 14.74 mPa·s; viscosity (333.15 K, x1 = 0.8001): 17.49 mPa·s; viscosity (333.15 K, x1 = 0.8993): 22.02 mPa·s; viscosity (338.15 K, x1 = 0.1003): 4.53 mPa·s; viscosity (338.15 K, x1 = 0.1982): 4.97 mPa·s; viscosity (338.15 K, x1 = 0.2999): 5.94 mPa·s; viscosity (338.15 K, x1 = 0.4002): 7.19 mPa·s; viscosity (338.15 K, x1 = 0.5005): 8.77 mPa·s; viscosity (338.15 K, x1 = 0.6994): 13.02 mPa·s; viscosity (338.15 K, x1 = 0.8001): 15.39 mPa·s; viscosity (338.15 K, x1 = 0.8993): 19.13 mPa·s; viscosity (343.15 K, x1 = 0.1003): 4.03 mPa·s; viscosity (343.15 K, x1 = 0.1982): 4.47 mPa·s; viscosity (343.15 K, x1 = 0.2999): 5.33 mPa·s; viscosity (343.15 K, x1 = 0.4002): 6.46 mPa·s; viscosity (343.15 K, x1 = 0.6994): 11.55 mPa·s; viscosity (343.15 K, x1 = 0.8993): 16.8 mPa·s
